Common to all, as to assay type: physicochemical
A short description of series [1]: Stability experiment: purity after 10 days of humidity, heat or light. The following applies: for stability compared with the amorphous form: conclusion from Table 6. The procedure: High-performance liquid chromatography (HPLC) test conditions involved in the present disclosure: the model of the liquid chromatograph was Agilent 1260; the chromatographic column was Waters XBridge C18 150*4.6 mm 3.5 μm; the detection wavelength was 234 nm; and the column temperature was 25° C.
The amorphous form of the compound of formula I prepared in Preparation Example, the crystal form A of the compound of formula I prepared in Example 1, the crystal form B of the compound of formula I prepared in Example 32, the crystal form C of the compound of formula I prepared in Example 48, the crystal form D of the compound of formula I prepared in Example 51, and the crystal form E of the compound of formula I prepared in Example 54 were placed in 75% RH, 92.5% RH, 40° C., 60° C. and light for 10 days respectively, and the X-ray powder diffraction pattern and purity of each crystal form were measured.

A short description of series [2]: Granularity experiment (D50, D90). The conditions noted are these: for D50 / D90: granularity. The procedure: The amorphous form of the compound of formula I prepared in Preparation Example, the crystal form A of the compound of formula I prepared in Example 1, the crystal form B of the compound of formula I prepared in Example 32, the crystal form C of the compound of formula I prepared in Example 48, the crystal form D of the compound of formula I prepared in Example 51, and the crystal form E of the compound of formula I prepared in Example 54 were measured for granularity, and the specific results are shown in Table 7 below: […]

Series [3] is described as follows: Hygroscopicity test. The conditions noted are these: for Hygroscopicity: 75% RH and 25° C. for 24 h, by weighing; for hygroscopicity (in words): crystal forms compared with amorphous form. The method, then: The amorphous form of the compound of formula I prepared in Preparation Example, the crystal form A of the compound of formula I prepared in Example 1, the crystal form B of the compound of formula I prepared in Example 32, the crystal form C of the compound of formula I prepared in Example 48, the crystal form D of the compound of formula I prepared in Example 51, and the crystal form E of the compound of formula I prepared in Example 54 were placed in an environment of 75% RH and 25° C. for 24 h and then weighed to calculate the hygroscopicity, respectively.

Series [4] in a line: Fluidity test (angle of repose). The conditions noted are these: for fluidity / angle of repose (in words): crystal forms compared with amorphous form. The procedure: The amorphous form of the compound of formula I prepared in Preparation Example, the crystal form A of the compound of formula I prepared in Example 1, the crystal form B of the compound of formula I prepared in Example 32, the crystal form C of the compound of formula I prepared in Example 48, the crystal form D of the compound of formula I prepared in Example 51, and the crystal form E of the compound of formula I prepared in Example 54 were measured for angle of repose, and the specific results are shown in Table 8 below: […]

Regarding `C=CC(=O)Nc1cc(N2CCN(CC)C3(CC3)C2)ccc1Nc1cc(N(C)C(=O)Nc2c(Cl)c(OC)cc(OC)c2Cl)ncn1` [Crystal form C, N-(2-((6-(3-(2,6-dichloro-3,5-dimethoxyphenyl)-1-methylureido)pyrimidin-4-yl)amino)-5-(4-ethyl-4,7-diazaspiro[2.5]octan-7-yl)phenyl)acrylamide], the purity in series [1] (40° C. for 10 days) is given as 99.66; in series [1] (60° C. for 10 days), 99.66; in series [1] (75% RH for 10 days), 99.71; in series [1] (92.5% RH for 10 days) it was 99.68; in series [1] (Day 0), 99.72; in series [1] (Light for 10 days), 99.70. Also, the “stability compared with the amorphous form” value in series [1] is reported as “better stability”. The molecule further displayed a D50 in series [2] of 21.77 μm. In series [2], this molecule displayed a D90 of 70.88 μm. The Hygroscopicity in series [3] is listed as 0.15%. Besides, in series [3], the “hygroscopicity (in words)” value was “significantly better than the amorphous form in terms of hygroscopicity”. In addition, the “fluidity / angle of repose (in words)” value in series [4] is recorded as “significantly better than the amorphous form in terms of fluidity”. In addition, the angle of repose is 34.2° in series [4] (measurement 1), 35.4° in series [4] (measurement 2) and 33.9° in series [4] (measurement 3).
For `C=CC(=O)Nc1cc(N2CCN(CC)C3(CC3)C2)ccc1Nc1cc(N(C)C(=O)Nc2c(Cl)c(OC)cc(OC)c2Cl)ncn1` [Crystal form E, N-(2-((6-(3-(2,6-dichloro-3,5-dimethoxyphenyl)-1-methylureido)pyrimidin-4-yl)amino)-5-(4-ethyl-4,7-diazaspiro[2.5]octan-7-yl)phenyl)acrylamide], the purity came out at 99.53 in series [1] (40° C. for 10 days); 99.52 in series [1] (60° C. for 10 days); 99.56 in series [1] (75% RH for 10 days); 99.54 in series [1] (92.5% RH for 10 days); 99.56 in series [1] (Day 0); 99.55 in series [1] (Light for 10 days). For the same molecule, in series [1], the “stability compared with the amorphous form” value is given as “better stability”. The D50 in series [2] is listed as 20.98 μm. In series [2], this molecule returned a D90 of 69.99 μm. In series [3], this molecule displayed a Hygroscopicity of 0.20%. In addition, the “hygroscopicity (in words)” value in series [3] was “significantly better than the amorphous form in terms of hygroscopicity”. Moreover, in series [4], the “fluidity / angle of repose (in words)” value is recorded as “significantly better than the amorphous form in terms of fluidity”. The angle of repose in series [4] (measurement 1) was found to be 35.5°; in series [4] (measurement 2), 36.1°; in series [4] (measurement 3), 35.9°.
Turning to `C=CC(=O)Nc1cc(N2CCN(CC)C3(CC3)C2)ccc1Nc1cc(N(C)C(=O)Nc2c(Cl)c(OC)cc(OC)c2Cl)ncn1` [Crystal form A, N-(2-((6-(3-(2,6-dichloro-3,5-dimethoxyphenyl)-1-methylureido)pyrimidin-4-yl)amino)-5-(4-ethyl-4,7-diazaspiro[2.5]octan-7-yl)phenyl)acrylamide], the purity in series [1] (40° C. for 10 days) was 99.83; in series [1] (60° C. for 10 days) it was 99.81; in series [1] (75% RH for 10 days) it was 99.85; in series [1] (92.5% RH for 10 days) it was 99.83; in series [1] (Day 0) it was 99.87; in series [1] (Light for 10 days) it was 99.87. For the same molecule, the “stability compared with the amorphous form” value in series [1] is “better stability”. For the same molecule, the D50 in series [2] is on record as 22.37 μm. The same molecule displayed a D90 in series [2] of 72.86 μm. Besides, the Hygroscopicity in series [3] stood at 0.10%. Moreover, the “hygroscopicity (in words)” value in series [3] is listed as “significantly better than the amorphous form in terms of hygroscopicity”. In addition, the “fluidity / angle of repose (in words)” value in series [4] is reported as “significantly better than the amorphous form in terms of fluidity”. Moreover, the angle of repose in series [4] (measurement 1) is 33.4°; in series [4] (measurement 2) it was 31.8°; in series [4] (measurement 3) it was 33.7°.
With `C=CC(=O)Nc1cc(N2CCN(CC)C3(CC3)C2)ccc1Nc1cc(N(C)C(=O)Nc2c(Cl)c(OC)cc(OC)c2Cl)ncn1` [Amorphous form, N-(2-((6-(3-(2,6-dichloro-3,5-dimethoxyphenyl)-1-methylureido)pyrimidin-4-yl)amino)-5-(4-ethyl-4,7-diazaspiro[2.5]octan-7-yl)phenyl)acrylamide], the purity was determined as 94.67 in series [1] (40° C. for 10 days); 94.73 in series [1] (60° C. for 10 days); 94.93 in series [1] (75% RH for 10 days); 94.83 in series [1] (92.5% RH for 10 days); 95.33 in series [1] (Day 0); 94.97 in series [1] (Light for 10 days). Also, in series [2] (amorphous form D50 as share of crystal forms A-E), the “D50 relative to the crystal forms” value was at most 13%. The “D90 relative to the crystal forms” value in series [2] (amorphous form D90 as share of crystal forms A-E) is recorded as at most 33%. Moreover, the “granularity (in words)” value in series [2] (compared with crystal forms A-E) is “remarkably small granularity”. Further, the D50 in series [2] and in series [2] (listed as amorphous form) was 2.68 μm each time. Besides, the D90 in series [2] and in series [2] (listed as amorphous form) was 22.82 μm in each case. The molecule also yielded a Hygroscopicity in series [3] of 0.52%. For the same molecule, the “hygroscopicity (in words)” value in series [3] is “significantly greater”. Also, in series [4], the “fluidity / angle of repose (in words)” value is listed as “significantly larger”. Moreover, the angle of repose in series [4] (measurement 1) amounted to 43.3°; in series [4] (measurement 2), 42.6°; in series [4] (measurement 3), 41.9°.
On to `C=CC(=O)Nc1cc(N2CCN(CC)C3(CC3)C2)ccc1Nc1cc(N(C)C(=O)Nc2c(Cl)c(OC)cc(OC)c2Cl)ncn1` [Crystal form B, N-(2-((6-(3-(2,6-dichloro-3,5-dimethoxyphenyl)-1-methylureido)pyrimidin-4-yl)amino)-5-(4-ethyl-4,7-diazaspiro[2.5]octan-7-yl)phenyl)acrylamide], for which the purity in series [1] (40° C. for 10 days) was determined as 99.69; in series [1] (60° C. for 10 days), 99.72; in series [1] (75% RH for 10 days) it was 99.75; in series [1] (92.5% RH for 10 days) it was 99.73; in series [1] (Day 0), 99.75; in series [1] (Light for 10 days) it was 99.73. Also, the “stability compared with the amorphous form” value in series [1] is “better stability”. In series [2], this molecule returned a D50 of 21.98 μm. This molecule also registered a D90 in series [2] of 71.56 μm. The Hygroscopicity in series [3] is listed as 0.12%. The “hygroscopicity (in words)” value in series [3] is on record as “significantly better than the amorphous form in terms of hygroscopicity”. For the same molecule, the “fluidity / angle of repose (in words)” value in series [4] is listed as “significantly better than the amorphous form in terms of fluidity”. Besides, the angle of repose in series [4] (measurement 1) is on record as 34.6°; in series [4] (measurement 2), 35.7°; in series [4] (measurement 3), 35.2°.
On to `C=CC(=O)Nc1cc(N2CCN(CC)C3(CC3)C2)ccc1Nc1cc(N(C)C(=O)Nc2c(Cl)c(OC)cc(OC)c2Cl)ncn1` [Crystal form D, N-(2-((6-(3-(2,6-dichloro-3,5-dimethoxyphenyl)-1-methylureido)pyrimidin-4-yl)amino)-5-(4-ethyl-4,7-diazaspiro[2.5]octan-7-yl)phenyl)acrylamide], for which the purity is 99.52 in series [1] (40° C. for 10 days); 99.49 in series [1] (60° C. for 10 days); 99.54 in series [1] (75% RH for 10 days); 99.54 in series [1] (92.5% RH for 10 days); 99.55 in series [1] (Day 0); 99.53 in series [1] (Light for 10 days). For the same molecule, the “stability compared with the amorphous form” value in series [1] was “better stability”. For the same molecule, in series [2], the D50 is 20.98 μm. This molecule yielded a D90 in series [2] of 70.49 μm. This molecule registered a Hygroscopicity in series [3] of 0.16%. For the same molecule, in series [3], the “hygroscopicity (in words)” value is “significantly better than the amorphous form in terms of hygroscopicity”. Also, in series [4], the “fluidity / angle of repose (in words)” value is reported as “significantly better than the amorphous form in terms of fluidity”. Further, the angle of repose in series [4] (measurement 1) came out at 35.6°; in series [4] (measurement 2), 36.2°; in series [4] (measurement 3), 35.1°.

These data come from patent publication US20240287045A1, “CRYSTAL FORM OF PYRIMIDINE DERIVATIVE AND PREPARATION METHOD THEREFOR” (ZHEJIANG HISUN PHARMACEUTICAL CO., LTD., priority 2021, published 2024).
